Measured values: patent US9012152B2, “Anti-bacterial peptides and methods of treating diseases using same” (Yissum Research Development Company of the Hebrew …, priority 2007, dated 2015)

Tests used:
[1] = Effect of pH on EDF; type: physicochemical; conditions: supernatant incubated at pH 3, 5, 7, 9 or 11 for 2 hours; extreme pH; readout: restoring mazEF-mediated cell death
Protocol: Effect of pH on EDF: Supernatants from the “donor” cultures described above were incubated at pH 3, 5, 7, 9 or 11 for 2 hours and titrated to PH 7. Their ability to restore mazEF-mediated cell death to a diluted culture was determined as described above.

[2] = Effect of temperature on EDF; type: physicochemical; conditions: supernatant incubated 10 minutes; high temperature (80° C. to 100° C.)
Protocol: Effect of temperature on EDF: Supernatants from the “donor” cultures described above were incubated at 37° C., 60° C., 80° C., or 100° C. for 10 minutes and cooled to 37° C. Their ability to restore mazEF-mediated cell death to a diluted culture was determined as described above.

[3] = target: proteinase K (Parengyodontium album, UniProt P06873); test: Effect of proteinase K on EDF; conditions: supernatant with proteinase K-agarose beads, 37° C., 2 hours
Protocol: Effect of proteinase K on EDF: Supernatants from the “donor” cultures described above were incubated with shaking at 37° C. for 2 hours as such or with agarose bease or with proteinase K-agarose beads. The beads were then removed by centrifugation at 14,000 rpm for 10 minutes. Their ability to restore mazEF-mediated cell death to a diluted culture was determined as described above.

[4] = test system: E. coli MC4100relA^+wt(WT) and MC4100relA^+ΔmazEF; test: Killing of E. coli cells by chemically synthesized EDF in combination with other antibiotic; type: cell-based; conditions: diluted culture
Protocol: Killing of E. coli cells by chemically synthesized EDF in combination with other antibiotic: E. coli MC4100relA^+wt(WT) and MC4100relA^+ΔmazEF (ΔmazEF) were grown for 12 hours in M9 medium with shaking (160 rpm). Then, cells were diluted 1:100 in M9 medium and were grown with shaking (160 rpm) at 37° C. to a mid-logarithmic phase (OD600=0.6). Duplicate samples were removed from the cultures at a density of 2.5×10^8 (Dense), diluted in pre-heated M9 medium to the density of 3×10^4 (M9) or diluted in pre-heated M9 applied with different concentrations of EDF. The samples were incubated for 10 minutes at 37° C. without shaking Then rifampicin (10 μg/ml) was added and the cells were incubated for 10 minutes without shaking. The cells were centrifuged in 14000 rpm for 5 minutes and washed in pre-heated saline. Then, the cells were diluted, plated on LB plates and incubated at 37° C. for 12 hours. Cell killing was calculated by comparing the number of the colony-forming ability of cells treated by stressful conditions to those of the cells that were not exposed to the treatment.

[5] = test system: E. coli MC4100relA^+wt (WT) and MC4100relA^+ΔmazEF; test: Killing of E. coli cells by chemically synthesized EDF itself; type: cell-based; conditions: chemically synthesized EDF by itself (without antibiotic), 3 hours
Protocol: Killing of E. coli cells by chemically synthesized EDF itself: E. coli MC4100relA^+wt (WT) and MC4100relA^+ΔmazEF (ΔmazEF) were grown for 12 hours in M9 medium with shaking (160 rpm). Then, cells were diluted 1:100 in M9 medium and were grown with shaking (160 rpm) at 37° C. to a mid-logarithmic phase (OD600=0.6). Samples were removed from the cultures at a density of 2.5×10^8 (Dense), centrifuged in 14000 rpm for 5 minutes and washed in pre-heated M9. The samples were applied with different concentrations of EDF, incubated for 3 hours at 37° C. without shaking. Then, cells were centrifuged in 14000 rpm for 5 minutes and washed in pre-heated saline. Then, the cells were diluted, plated on LB plates and incubated at 37° C. for 12 hours. Cell killing was calculated by comparing the number of the colony-forming ability of cells treated by stressful conditions to those of the cells that were not exposed to the treatment.

[6] = test system: MC4100relA^+; test: EDF response of recipient culture, strain MC4100relA^+; type: cell-based, E. coli; conditions: rifampicin 10 μg/ml
Protocol: (§1) Comparison of EDF response in MC4100relA^+, K38, W3110, and MG1655 E. coli strains: Cultures of MC4100relA^+, K38, W3110, and MG1655 E. coli were grown as described in Example 1. When the cultures reached a density of 2.5×10^8 cells/ml, duplicate samples were removed and diluted to 3×10^4 cells/ml in pre-heated supernatant of a dense culture of MC4100relA^+(WT) which had been titrated to have an EDF concentration of either 1 unit/ml or 10 units/ml (quantified as described in Example 3). After incubation without shaking at 37° C. for 10 minutes, rifampicin (10 μg/ml) was added, and the culture was incubated without shaking at 37° C. for an additional 10 minutes. Cells were centrifuged in 14,000 rpm for 5 minutes and washed in pre-heated saline. Then, the cells were diluted, plated on LB plates, and incubated at 37° C. for 12 hours. Cell survival was calculated by comparing the colony-forming units (CFUs) of treated cells to those of untreated cells.

[7] = test system: K-38; test: EDF response of recipient culture, strain K-38; type: cell-based, E. coli; conditions: rifampicin 10 μg/ml
Protocol: as §1

[8] = test system: MG1655; test: EDF response of recipient culture, strain MG1655; type: cell-based, E. coli; conditions: rifampicin 10 μg/ml
Protocol: as §1

[9] = test system: W3110; test: EDF response of recipient culture, strain W3110; type: cell-based, E. coli; conditions: rifampicin 10 μg/ml
Protocol: as §1

[10] = test system: E. Coli MC4100relA^+ cells, K38 cells and W3110; test: Chemically synthesized EDF restores mazEF mediated cell death to a dilute culture; type: cell-based; conditions: synthetic EDF 2.5 ng/ml
Protocol: Chemically synthesized EDF restores mazEF mediated cell death to a dilute culture: E. Coli MC4100relA^+ cells, K38 cells and W3110 and ΔmazEF cells were grown as described in Example 1 herein above. At a density of 2.5×10^8 cells/ml, samples were either not diluted (dense) or diluted to 3×10^4 cells/ml in pre-warmed M9 medium (Diluted culture) or in a pre-warmed M9 applied with chemically synthesized EDF (2.5 ng/ml; diluted culture+EDF). For FIGS. 12A-C, samples were incubated with rifampicin as in FIG. 2A. For FIG. 13A, samples were incubated in trimethorpin (2 μg/ml) for 1 hour and for FIG. 13B samples were incubated in chlorapmphenicol (50 μg/ml) for 20 minutes.

[11] = test system: E. coli MC4100relA^+; test: E. coli mazEF-mediated cell death in the presence of synthesized wild type and mutated EDF; type: cell-based; conditions: 1 μg/ml of peptide; rifampicin 10 μg/ml, 10 minutes; diluted culture 3×10^4
Protocol: (§2) E. coli mazEF-mediated cell death in the presence of synthesized wild type (WT) and mutated EDF. E. coli MC4100relA^+t(WT) and MC4100relA^+ΔmazEF (ΔmazEF) were grown for 12 hours in M9 medium with shaking (160 rpm). Then, cells were diluted 1:100 in M9 medium and were grown with shaking (160 rpm) at 37° C. to a mid-logarithmic phase (OD600=0.6). Duplicate samples were removed from the cultures at a density of 2.5×10^8 (Dense), diluted in pre-heated M9 medium to the density of 3×10^4 (M9) or diluted in pre-heated M9 applied with 1 μg/ml of one of the synthesized EDFs (SEQ ID NOs: 1-6). The samples were incubated for 10 minutes at 37° C. without shaking. Then rifampicin (10 μg/ml) was added and the cells were incubated for 10 minutes without shaking. The cells were centrifuged in 14000 rpm for 5 minutes and washed in pre-heated saline. Then, the cells were diluted, plated on LB plates and incubated at 37° C. for 12 hours. Cell killing was calculated by comparing the number of the colony-forming ability of cells treated by stressful conditions to those of the cells that were not exposed to the treatment.

[12] = test system: E. Coli NC4100relA^+; test: Ability of mutant EDF molecules to inhibit wild type EDF activity; type: cell-based; conditions: constant amount (50 ng/ml) of mutated EDF, various concentrations of WT EDF
Protocol: FIG. 15 is a graph illustrating the ability of mutant EDF molecules to inhibit wild type EDF activity. The […] peptides analyzed include NNWNN (SEQ ID NO: 1); GNWNN (SEQ ID NO: 2); NGWNN (SEQ ID NO: 3); NNGNN (SEQ ID NO: 4); NNWGN (SEQ ID NO: 5); and NNWNG (SEQ ID NO: 6).
Ability of mutant EDF molecules to inhibit wild type EDF activity: Various concentration of chemically synthesized WT EDF (SEQ ID NO: 1) were added to diluted cultures of E. Coli NC4100relA^+ containing a constant amount (50 ng/ml) of each of the mutated EDF described in Table 6. The Experiment was carried out as described herein above.

[13] = test system: E. Coli MC41relA^+; test: EDF activity of modified derivatives (size and external Asn residues); type: cell-based; conditions: various concentrations added to diluted cultures; incubated with rifampicin
Protocol: The […] peptides analyzed include NNWNN (SEQ ID NO: 1); GNWNN (SEQ ID NO: 2); NGWNN (SEQ ID NO: 3); NNGNN (SEQ ID NO: 4); NNWGN (SEQ ID NO: 5); and NNWNG (SEQ ID NO: 6). […] Chemically synthesized EDF (SEQ ID NO: 1) or its modified derivatives were added at various concentrations to diluted cultures of E. Coli MC41relA^+. No EDF was added to a control culture. […] Samples were incubated with rifampicin as described in Example 1.
as §2, with “Duplicate samples were removed from the cultures at a density of 2.5×10^8 (Dense), diluted in pre-heated M9 medium to the density of 3×10^4 (M9) or diluted in pre-heated M9 applied with 1 μg/ml of one of the synthesized EDFs (SEQ ID NOs: 1-6).” left out

[14] = EDF 10 units/ml (titrated supernatant)
[15] = EDF 1 units/ml (titrated supernatant)

Chain of proteinase K (P06873 106-384): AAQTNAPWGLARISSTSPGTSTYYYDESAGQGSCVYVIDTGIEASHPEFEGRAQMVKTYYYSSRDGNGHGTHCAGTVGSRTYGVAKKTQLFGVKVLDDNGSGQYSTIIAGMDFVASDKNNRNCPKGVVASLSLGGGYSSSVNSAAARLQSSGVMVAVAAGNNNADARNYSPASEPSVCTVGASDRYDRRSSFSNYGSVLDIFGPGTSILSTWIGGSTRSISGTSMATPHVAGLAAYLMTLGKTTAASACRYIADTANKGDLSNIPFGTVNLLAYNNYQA

Q: With “Asn-Asn-Trp-Asn-Asn (NNWNN; Chemically synthesized WT EDF) [linear pentapeptide NNWNN, extracellular death factor of E. coli; purified from supernatant and chemically synthesized]” as the substance, how does the “sensitivity of EDF to pH” value [1] read?
A: sensitive

Q: And the “sensitivity of EDF to temperature” value [2]?
A: sensitive

Q: What about the “sensitivity of EDF to proteinase K” value [3] of the same substance?
A: sensitive

Q: What about the “concentrations of EDF at which cell death is mazEF-independent” value ([4]; chemically synthesized EDF in conjunction with an antibiotic (rafamycin)) of the same substance?
A: over 500 ng/ml

Q: And the “concentrations of EDF at which cell death is mazEF-dependent” value ([4]; chemically synthesized EDF in conjunction with an antibiotic)?
A: 1 to 500 ng/mL

Q: What about the “concentrations of EDF at which cell death is mazEF-dependent” value [5] of the same substance?
A: 1 to 10 µg/mL

Q: What about the “concentrations of EDF at which cell death is mazEF-independent” value [5] of the same substance?
A: > 10 µg/mL

Q: And the “% Survival of recipient culture in response to added EDF” value (“% Survival of recipient culture” for short) ([6]; EDF 1 units/ml (titrated supernatant of dense MC4100relA^+ culture))?
A: 8.0 ± 5.0%

Q: What about the “% Survival of recipient culture” value [6, 14] of the same substance?
A: 7.0 ± 2.0%

Q: And the “% Survival of recipient culture” value [7, 15]?
A: 17.0 ± 4.2%

Q: And the “% Survival of recipient culture” value [7, 14]?
A: 12.0 ± 6.6%

Q: What about the “% Survival of recipient culture” value [8, 15] of the same substance?
A: 77.8 ± 3.4%

Q: What about the “% Survival of recipient culture” value [8, 14] of the same substance?
A: 19.6 ± 4.5%

Q: What about the “% Survival of recipient culture” value [9, 15] of the same substance?
A: 15.0 ± 3.6%

Q: What about the “% Survival of recipient culture” value [9, 14] of the same substance?
A: 14.0 ± 2.3%

Q: And the “mazEF-mediated cell death in a diluted culture” value (“mazEF-mediated cell death” below) ([10]; induced by chloramphenicol 50 μg/ml, 20 minutes)?
A: enhanced mazEF-mediated cell death

Q: And the “mazEF-mediated cell death” value ([10]; induced by rifampicin in different E. Coli strains (MC4100relA^+, K38, W3110))?
A: enhanced mazEF-mediated cell death

Q: And the “mazEF-mediated cell death” value ([10]; induced by trimethoprim 2 μg/ml, 1 hour)?
A: enhanced mazEF-mediated cell death

Q: What about the “% Cell killing following mazEF induction with rifampicin” value [11] of the same substance?
A: 99.5%

Q: Which “% Cell killing following mazEF induction with rifampicin” value [11] does the source give for “GNWNN: Mutated EDF pentapeptide, glycine in position 1 (Chemically synthesized mutant EDF derivative)” here?
A: 9%

Q: What about the “inhibition of wild type EDF activity” value [12] of the same substance?
A: capable of antagonizing

Q: With “NGWNN: Mutated EDF pentapeptide, glycine in position 2 (Chemically synthesized mutant EDF derivative)” as the substance, how does the “% Cell killing following mazEF induction with rifampicin” value [11] read?
A: 51%

Q: For “NNGNN: Mutated EDF pentapeptide, glycine in position 3 (Chemically synthesized mutant EDF derivative)”, which “% Cell killing following mazEF induction with rifampicin” value [11] is on record?
A: 41%

Q: Which EDF activity [13] does the source give for “NNNWNNN (Chemically synthesized modified EDF derivative) [heptapeptide derivative of EDF]” here?
A: partial activity

Q: Which “% Cell killing following mazEF induction with rifampicin” value [11] does the source give for “NNWGN: Mutated EDF pentapeptide, glycine in position 4 (Chemically synthesized mutant EDF derivative)” here?
A: 72%

Q: For “NNWNG: Mutated EDF pentapeptide, glycine in position 5 (Chemically synthesized modified EDF derivative)”, which “% Cell killing following mazEF induction with rifampicin” value [11] is on record?
A: 19%

Q: What about the “inhibition of wild type EDF activity” value [12] of the same substance?
A: capable of antagonizing

Q: For “NNWNQ: EDF pentapeptide with Asn replaced by Gln at the last position (Chemically synthesized modified EDF derivative)”, which EDF activity [13] is on record?
A: only a partial reduction in EDF activity

Q: With “QNWNN: EDF pentapeptide with Asn replaced by Gln at the first position (Chemically synthesized modified EDF derivative)” as the substance, how does the EDF activity [13] read?
A: only a partial reduction in EDF activity
